This assay deals with human APJ receptor (Homo sapiens (Human), UniProt P35414). In words: [35S]GTPγS binding assay on membranes from CHO cells stably expressing human APJ receptor. It counts as biochemical. As to conditions: read-out: Activity hAPJ SPA EC50 IP. The essentials:
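Agonist-driven [35S]GTPγS (0.2 nM) binding was measured over 90 min at room temperature on human APJ-expressing CHO membranes with bead capture, in buffer containing 3 μM GDP, 200 mM NaCl and 5 mM MgCl2 (pH 7.5). Excess unlabelled GTPγS (100 μM) gave nonspecific signal; EC50 from non-linear fits.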
Chain of human APJ receptor (P35414 whole entry): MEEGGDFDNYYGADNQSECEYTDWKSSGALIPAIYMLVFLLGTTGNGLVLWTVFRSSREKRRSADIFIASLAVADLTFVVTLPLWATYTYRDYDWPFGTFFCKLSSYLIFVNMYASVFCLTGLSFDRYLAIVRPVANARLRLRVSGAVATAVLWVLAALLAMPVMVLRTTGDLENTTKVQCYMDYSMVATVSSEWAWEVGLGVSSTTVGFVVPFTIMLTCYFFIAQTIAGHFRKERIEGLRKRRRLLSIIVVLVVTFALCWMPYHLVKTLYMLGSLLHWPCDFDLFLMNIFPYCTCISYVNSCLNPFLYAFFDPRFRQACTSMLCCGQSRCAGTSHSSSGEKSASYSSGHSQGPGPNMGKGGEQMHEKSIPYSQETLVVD
A word on the EC50: it is the concentration needed to bring the measured effect to its halfway point. With `COc1cccc(OC)c1-n1c(NS(=O)(=O)[C@@H](C)[C@@H](OC(C)C)c2ncc(C)cn2)nnc1[C@@H]1COC(C)(C)C1` (single isomer, unassigned) [Example 412.0, (1S,2S)-N-(4-(2,6-dimethoxyphenyl)-5-((3R)-5,5-dimethyltetrahydro-3-furanyl)-4H-1,2,4-triazol-3-yl)-1-(5-methyl-2-pyrimidinyl)-1-(2-propanyloxy)-2-propanesulfonamide or (1S,2S)-N-(4-(2,6-dimethoxyphenyl)-5-((3S)-5,5-dimethyltetrahydro-3-furanyl)-4H-1,2,4-triazol-3-yl)-1-(5-methyl-2-pyrimidinyl)-1-(2-propanyloxy)-2-propanesulfonamide], the half-maximal effective concentration (EC50) stood at 40 nM. To `COc1cccc(OC)c1-n1c(NS(=O)(=O)[C@@H](C)[C@@H](OC(C)C)c2ncc(Cl)cn2)nnc1[C@H]1CCC(C)(C)O1` (single isomer, unassigned) [Example 413.0, (1S,2S)-1-(5-chloro-2-pyrimidinyl)-N-(4-(2,6-dimethoxyphenyl)-5-((2R)-5,5-dimethyltetrahydro-2-furanyl)-4H-1,2,4-triazol-3-yl)-1-(2-propanyloxy)-2-propanesulfonamide or (1S,2S)-1-(5-chloro-2-pyrimidinyl)-N-(4-(2,6-dimethoxyphenyl)-5-((2S)-5,5-dimethyltetrahydro-2-furanyl)-4H-1,2,4-triazol-3-yl)-1-(2-propanyloxy)-2-propanesulfonamide] belongs 7.4 nM; to `COc1cccc(OC)c1-n1c(NS(=O)(=O)[C@@H](C)[C@@H](OC(C)C)c2ncc(Cl)cn2)nnc1[C@H]1CCC(C)(C)O1` (single isomer, unassigned) [Example 414.0, (1S,2S)-1-(5-chloro-2-pyrimidinyl)-N-(4-(2,6-dimethoxyphenyl)-5-((2R)-5,5-dimethyltetrahydro-2-furanyl)-4H-1,2,4-triazol-3-yl)-1-(2-propanyloxy)-2-propanesulfonamide or (1S,2S)-1-(5-chloro-2-pyrimidinyl)-N-(4-(2,6-dimethoxyphenyl)-5-((2S)-5,5-dimethyltetrahydro-2-furanyl)-4H-1,2,4-triazol-3-yl)-1-(2-propanyloxy)-2-propanesulfonamide], 1.2 nM. To `C[C@H](c1ncc(Cl)cn1)[C@H](C)S(=O)(=O)Nc1nnc([C@@H]2CCOC2)n1[C@H](C)c1ccon1` (single isomer, unassigned) [Example 415.0, (2S,3R)-3-(5-chloro-2-pyrimidinyl)-N-(4-((1R)-1-(1,2-oxazol-3-yl)ethyl)-5-((3S)-tetrahydro-3-furanyl)-4H-1,2,4-triazol-3-yl)-2-butanesulfonamide or (2S,3R)-3-(5-chloro-2-pyrimidinyl)-N-(4-((1S)-1-(1,2-oxazol-3-yl)ethyl)-5-((3S)-tetrahydro-3-furanyl)-4H-1,2,4-triazol-3-yl)-2-butanesulfonamide] belongs 230 nM. To `C[C@H](c1ncc(Cl)cn1)[C@H](C)S(=O)(=O)Nc1nnc([C@@H]2CCOC2)n1[C@H](C)c1ccon1` (single isomer, unassigned) [Example 416.0, (2S,3R)-3-(5-chloro-2-pyrimidinyl)-N-(4-((1R)-1-(1,2-oxazol-3-yl)ethyl)-5-((3S)-tetrahydro-3-furanyl)-4H-1,2,4-triazol-3-yl)-2-butanesulfonamide or (2S,3R)-3-(5-chloro-2-pyrimidinyl)-N-(4-((1S)-1-(1,2-oxazol-3-yl)ethyl)-5-((3S)-tetrahydro-3-furanyl)-4H-1,2,4-triazol-3-yl)-2-butanesulfonamide] belongs 190 nM. For `COc1cccc(OC)c1-n1c(NS(=O)(=O)[C@@H](C)[C@@H](OC(C)C)c2ncc(C)cn2)nnc1[C@H]1CCC(=O)N1C` (single isomer, unassigned) [Example 417.0, (1S,2S)-N-(4-(2,6-dimethoxyphenyl)-5-((2R)-1-methyl-5-oxo-2-pyrrolidinyl)-4H-1,2,4-triazol-3-yl)-1-(5-methyl-2-pyrimidinyl)-1-(2-propanyloxy)-2-propanesulfonamide or (1S,2S)-N-(4-(2,6-dimethoxyphenyl)-5-((2S)-1-methyl-5-oxo-2-pyrrolidinyl)-4H-1,2,4-triazol-3-yl)-1-(5-methyl-2-pyrimidinyl)-1-(2-propanyloxy)-2-propanesulfonamide], the concentration giving a half-maximal response (EC50) amounted to 190 nM. With `COc1cccc(OC)c1-n1c(NS(=O)(=O)[C@@H](C)[C@@H](OC(C)C)c2ncc(C)cn2)nnc1[C@H]1CCC(=O)N1C` (single isomer, unassigned) [Example 418.0, (1S,2S)-N-(4-(2,6-dimethoxyphenyl)-5-((2R)-1-methyl-5-oxo-2-pyrrolidinyl)-4H-1,2,4-triazol-3-yl)-1-(5-methyl-2-pyrimidinyl)-1-(2-propanyloxy)-2-propanesulfonamide or (1S,2S)-N-(4-(2,6-dimethoxyphenyl)-5-((2S)-1-methyl-5-oxo-2-pyrrolidinyl)-4H-1,2,4-triazol-3-yl)-1-(5-methyl-2-pyrimidinyl)-1-(2-propanyloxy)-2-propanesulfonamide], the half-maximal effective concentration (EC50) amounted to 350 nM. In the case of `COc1cccc(OC)c1-n1c(NS(=O)(=O)[C@@H](C)[C@H](C)c2ncc(Cl)cn2)nnc1[C@H]1CCC(=O)N1C` (single isomer, unassigned) [Example 419.0, (2S,3R)-3-(5-chloro-2-pyrimidinyl)-N-(4-(2,6-dimethoxyphenyl)-5-((2R)-1-methyl-5-oxo-2-pyrrolidinyl)-4H-1,2,4-triazol-3-yl)-2-butanesulfonamide or ((2S,3R)-3-(5-chloro-2-pyrimidinyl)-N-(4-(2,6-dimethoxyphenyl)-5-((2S)-1-methyl-5-oxo-2-pyrrolidinyl)-4H-1,2,4-triazol-3-yl)-2-butanesulfonamide], the EC50 stood at 3430 nM. To `COc1cccc(OC)c1-n1c(NS(=O)(=O)CCc2ncc(Cl)cn2)nnc1[C@@H]1COCCO1` (single isomer, unassigned) [Example 424.0, 2-(5-chloro-2-pyrimidinyl)-N-(4-(2,6-dimethoxyphenyl)-5-((2R)-1,4-dioxan-2-yl)-4H-1,2,4-triazol-3-yl)ethanesulfonamide or 2-(5-chloro-2-pyrimidinyl)-N-(4-(2,6-dimethoxyphenyl)-5-((2S)-1,4-dioxan-2-yl)-4H-1,2,4-triazol-3-yl)ethanesulfonamide] belongs 52 nM; to `COc1cccc(OC)c1-n1c(NS(=O)(=O)CCc2ncc(Cl)cn2)nnc1[C@@H]1COCCO1` (single isomer, unassigned) [Example 425.0, 2-(5-chloro-2-pyrimidinyl)-N-(4-(2,6-dimethoxyphenyl)-5-((2R)-1,4-dioxan-2-yl)-4H-1,2,4-triazol-3-yl)ethanesulfonamide or 2-(5-chloro-2-pyrimidinyl)-N-(4-(2,6-dimethoxyphenyl)-5-((2S)-1,4-dioxan-2-yl)-4H-1,2,4-triazol-3-yl)ethanesulfonamide], 130 nM.

Consider `COc1cccc(OC)c1-n1c(NS(=O)(=O)[C@@H](C)[C@H](C)c2ncc(Cl)cn2)nnc1[C@H]1CCO1` (single isomer, unassigned) [Example 445.0, (2S,3R)-3-(5-chloropyrimidin-2-yl)-N-(4-(2,6-dimethoxyphenyl)-5-((R)-oxetan-2-yl)-4H-1,2,4-triazol-3-yl)butane-2-sulfonamide or (2S,3R)-3-(5-chloropyrimidin-2-yl)-N-(4-(2,6-dimethoxyphenyl)-5-((S)-oxetan-2-yl)-4H-1,2,4-triazol-3-yl)butane-2-sulfonamide], for which the EC50 was determined as 30 nM. To `COc1cccc(OC)c1-n1c(NS(=O)(=O)[C@@H](C)[C@H](C)c2ncc(Cl)cn2)nnc1[C@@H]1CCN(C(=O)OC(C)(C)C)C1` (stereo in doubt) [Example 41.0, tert-butyl (3R)-3-(5-((((1S,2R)-2-(5-chloro-2-pyrimidinyl)-1-methylpropyl)sulfonyl)amino)-4-(2,6-dimethoxyphenyl)-4H-1,2,4-triazol-3-yl)-1-pyrrolidinecarboxylate or tert-butyl (3S)-3-(5-((((1S,2R)-2-(5-chloro-2-pyrimidinyl)-1-methylpropyl)sulfonyl)amino)-4-(2,6-dimethoxyphenyl)-4H-1,2,4-triazol-3-yl)-1-pyrrolidinecarboxylate] belongs 820 nM.

As for `COc1cccc(OC)c1-n1c(NS(=O)(=O)[C@@H](C)[C@H](C)c2ncc(Cl)cn2)nnc1[C@H]1CCN(C(=O)OC(C)(C)C)C1` (stereo in doubt) [Example 42.0, tert-butyl (3S)-3-(5-((((1S,2R)-2-(5-chloro-2-pyrimidinyl)-1-methylpropypsulfonyl)amino)-4-(2,6-dimethoxyphenyl)-4H-1,2,4-triazol-3-yl)-1-pyrrolidinecarboxylate or tert-butyl (3R)-3-(5-((((1S,2R)-2-(5-chloro-2-pyrimidinyl)-1-methylpropypsulfonyl)amino)-4-(2,6-dimethoxyphenyl)-4H-1,2,4-triazol-3-yl)-1-pyrrolidinecarboxylate], the EC50 stood at 210 nM.

For `COc1cccc(OC)c1-n1c(NS(=O)(=O)[C@H](C)Cc2ncc(F)cn2)nnc1[C@H]1CCOC1` [Example 6.0], the EC50 was determined as 400 nM. To `Cc1cnc([C@@H](C)[C@H](C)S(=O)(=O)Nc2nnc([C@@H]3CCCO3)n2-c2c(F)cccc2F)nc1` [Example 18.0, (2S,3R)-N-(4-(2,6-difluorophenyl)-5-((2S)-tetrahydro-2-furanyl)-4H-1,2,4-triazol-3-yl)-3-(5-methyl-2-pyrimidinyl)-2-butanesulfonamide] belongs 120 nM.

`Cc1cnc([C@@H](C)[C@H](C)S(=O)(=O)Nc2nnc([C@H]3CCCO3)n2-c2c(F)cccc2F)nc1` [Example 19.0, (2S,3R)-N-(4-(2,6-difluorophenyl)-5-((2R)-tetrahydro-2-furanyl)-4H-1,2,4-triazol-3-yl)-3-(5-methyl-2-pyrimidinyl)-2-butanesulfonamide]: the EC50 was determined as 60 nM.

Source of the values: patent US10150760B2, “Compounds for use in preparing heterocyclic triazole agonists of the APJ receptor” (AMGEN INC., priority 2016, dated 2018).
